Laboratory results reported in the supplement of paper PMC7661543.
± gives the standard deviation of the averaged measurements.

Legend:
Assay in all cases: relative cell number vs DMSO control (72 h) (% of DMSO); higher = less growth inhibition (more cells)
Settings in all cases: sgRNA knockout: sgNT
MDA-MB-231 = test system: MDA-MB-231
Method: (§1)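 QMAP-Seq: a pool of 5 breast cancer cell lines (ZR-75-1, SKBR3, HCC-38, MDA-MB-231, BT-20), each carrying 12 doxycycline-inducible Cas9 sgRNA perturbations (11 knockouts plus non-targeting sgNT), was treated with compounds for 72 h at four 10-fold doses (10 nM-10 uM or 1 nM-1 uM range). Barcodes were amplified and sequenced, and cell number was interpolated from 293T spike-in standard curves. The result is expressed as % of the median of DMSO wells. Two biological replicates.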

ZR-75-1 = test system: ZR-75-1
Method: as §1

HCC-38 = test system: HCC-38
Method: as §1

SKBR3 = test system: SKBR3
Method: as §1

BT-20 = test system: BT-20
Method: as §1

Row | SMILES | relative cell number (MDA-MB-231; 10 nM) | relative cell number (MDA-MB-231; 100 nM) | relative cell number (MDA-MB-231; 1000 nM) | relative cell number (MDA-MB-231; 10000 nM) | relative cell number (ZR-75-1; 10 nM) | relative cell number (ZR-75-1; 100 nM) | relative cell number (ZR-75-1; 1000 nM) | relative cell number (ZR-75-1; 10000 nM) | relative cell number (HCC-38; 10 nM) | relative cell number (HCC-38; 100 nM) | relative cell number (HCC-38; 1000 nM) | relative cell number (HCC-38; 10000 nM) | relative cell number (SKBR3; 10 nM) | relative cell number (SKBR3; 100 nM) | relative cell number (SKBR3; 1000 nM) | relative cell number (SKBR3; 10000 nM) | relative cell number (BT-20; 10 nM) | relative cell number (BT-20; 100 nM) | relative cell number (BT-20; 1000 nM) | relative cell number (BT-20; 10000 nM) | relative cell number (MDA-MB-231; 1 nM) | relative cell number (ZR-75-1; 1 nM) | relative cell number (HCC-38; 1 nM) | relative cell number (SKBR3; 1 nM) | relative cell number (BT-20; 1 nM)
1 | O=c1[nH]cc(F)c(=O)[nH]1 [5-Fluorouracil] | 86.6 ± 16 | 113 ± 28 | 119 ± 16 | 49.2 ± 6.5 | 103 ± 28 | 83.2 ± 13 | 51.6 ± 1.8 | 41 ± 11 | 95.2 ± 6.8 | 121 ± 15 | 107 ± 21 | 66.2 ± 6.2 | 97.9 ± 14 | 79.7 ± 19 | 65.4 ± 18 | 17.5 ± 3.4 | 115 ± 7.9 | 110 ± 3.4 | 78.4 ± 7 | 57.9 ± 2.7 |  |  |  |  | 
2 | S=c1nc[nH]c2nc[nH]c12 [6-Mercaptopurine] | 120 ± 2.9 | 79.8 ± 1.3 | 60.6 ± 15 | 63.5 ± 7.8 | 100 ± 55 | 66.5 ± 5.7 | 100 ± 59 | 55.5 ± 22 | 99.6 ± 7 | 99.7 ± 5.1 | 81.3 ± 10 | 61.3 ± 2.1 | 112 ± 11 | 83.1 ± 39 | 78.3 ± 21 | 48.4 ± 25 | 97.8 ± 13 | 101 ± 4.8 | 85.3 ± 6 | 62.7 ± 4.4 |  |  |  |  | 
3 | Cc1sc2c(c1C)C(c1ccc(Cl)cc1)=N[C@@H](CC(=O)OC(C)(C)C)c1nnc(C)n1-2 [(+)-JQ1] | 109 ± 30 | 99.7 ± 4 | 105.4 ± 0.35 | 50.7 ± 18 | 98.5 ± 22 | 122 ± 50 | 86.2 ± 21 | 49.4 ± 1.2 | 104 ± 4.2 | 112 ± 33 | 93.2 ± 1.9 | 65.3 ± 1.1 | 102 ± 17 | 119 ± 21 | 91.5 ± 2.7 | 62.6 ± 3.5 | 99.3 ± 17 | 108 ± 1.9 | 108 ± 4.7 | 93.5 ± 4 |  |  |  |  | 
4 | CN(C)CC[C@H](CSc1ccccc1)Nc1ccc(S(=O)(=O)NC(=O)c2ccc(N3CCN(Cc4ccccc4-c4ccc(Cl)cc4)CC3)cc2)cc1[N+](=O)[O-] [ABT737] | 96.3 ± 18 | 102 ± 21 | 90.4 ± 30 | 69.4 ± 16 | 74.8 ± 17 | 117 ± 40 | 124 ± 25 | 73.9 ± 11 | 104 ± 3.7 | 84 ± 12 | 88.2 ± 4.7 | 62.5 ± 18 | 84.5 ± 11 | 98.2 ± 4.7 | 85.7 ± 9.8 | 93.31 ± 0.55 | 93.2 ± 26 | 97.5 ± 10 | 94.8 ± 13 | 69.2 ± 5.1 |  |  |  |  | 
5 | c1cc(Nc2cc(C3CC3)[nH]n2)nc(Nc2ccc3nc[nH]c3c2)n1 [APY29] | 109 ± 5.4 | 52.8 ± 4.2 | 17.1 ± 3.7 | 10.7 ± 3.8 | 119 ± 26 | 74 ± 39 | 23.6 ± 1.6 | 10.7 ± 9.5 | 91.3 ± 16 | 64.3 ± 3.1 | 26.6 ± 2.5 | 23.3 ± 0.34 | 110 ± 9 | 40.6 ± 1.2 | 12.5 ± 6.6 | 5.99 ± 1.9 | 120 ± 4.3 | 79.9 ± 16 | 88.3 ± 10 | 40.7 ± 5.9 |  |  |  |  | 
6 | Clc1ccc(C2(c3ccc(-c4cn[nH]c4)cc3)CCNCC2)cc1 [AT7867] | 59.5 ± 17 | 84.9 ± 1.7 | 35.9 ± 6 | 14.5 ± 2.1 | 61.2 ± 35 | 64.4 ± 20 | 66.2 ± 5.2 | 11.1 ± 1.7 | 91.3 ± 5.8 | 64.1 ± 14 | 45.4 ± 2.5 | 50.5 ± 2.3 | 70.8 ± 4.4 | 102 ± 5 | 59.38 ± 0.082 | 10.8 ± 2.8 | 79.5 ± 20 | 108 ± 32 | 77.8 ± 12 | 24.8 ± 5.2 |  |  |  |  | 
7 | COc1cc(CCc2cc(NC(=O)c3ccc(N4CC(C)NC(C)C4)cc3)n[nH]2)cc(OC)c1 (stereo not given) [AZD4547] | 79.2 ± 13 | 100.2 ± 0.6 | 99.5 ± 11 | 40.1 ± 3 | 82.1 ± 31 | 68.3 ± 13 | 83.9 ± 5.3 | 21.3 ± 10 | 88.6 ± 1.6 | 64.5 ± 6.9 | 54.6 ± 1.7 | 46.8 ± 1.9 | 62.3 ± 26 | 83 ± 9.8 | 94.1 ± 33 | 51 ± 14 | 66.6 ± 0.77 | 94.7 ± 4.5 | 81.9 ± 15 | 56.5 ± 2.4 |  |  |  |  | 
8 | CN(C)C(=O)c1ccc(S(=O)(=O)c2ccc(NC(=O)[C@@](C)(O)C(F)(F)F)c(Cl)c2)cc1 [AZD7545] | 103 ± 17 | 121 ± 14 | 104 ± 39 | 89.5 ± 47 | 110 ± 7.3 | 116 ± 53 | 91.8 ± 25 | 42.7 ± 5.5 | 105 ± 6.3 | 90 ± 14 | 97.8 ± 1.1 | 82.9 ± 1.9 | 97.6 ± 9.6 | 103 ± 18 | 95.8 ± 11 | 70.3 ± 10 | 91.2 ± 24 | 103 ± 25 | 102 ± 22 | 95.7 ± 8.7 |  |  |  |  | 
9 | C[C@@H](Nc1cc(F)cc(F)c1)c1cc(C(=O)N(C)C)cc2c(=O)cc(N3CCOCC3)oc12 [AZD8186] | 109 ± 3.1 | 134 ± 21 | 130 ± 80 | 83.4 ± 28 | 91.2 ± 19 | 103 ± 1.3 | 66.4 ± 4 | 49.1 ± 22 | 97.9 ± 24 | 105 ± 19 | 86.8 ± 7.5 | 79.5 ± 7.5 | 88.2 ± 0.97 | 103 ± 18 | 94.2 ± 6.8 | 59.6 ± 10 | 103 ± 9.9 | 117 ± 3.5 | 107 ± 23 | 98.3 ± 1.2 |  |  |  |  | 
10 | C[C@]12CC[C@H](O)CC1=CC[C@@H]1[C@@H]2CC[C@]2(C)C(c3cccnc3)=CC[C@@H]12 [Abiraterone] | 115 ± 3.5 | 99.4 ± 5.8 | 153 ± 19 |  | 115 ± 34 | 105 ± 18 | 90.5 ± 55 |  | 107 ± 4.5 | 104 ± 5.2 | 116 ± 16 |  | 118 ± 15 | 114 ± 42 | 114 ± 10 |  | 115 ± 6.5 | 118 ± 20 | 116 ± 3.4 |  | 127 ± 2.9 | 101 ± 16 | 109 ± 2.1 | 139 ± 37 | 109 ± 10
11 | CN(C)C/C=C/C(=O)Nc1cc2c(Nc3ccc(F)c(Cl)c3)ncnc2cc1O[C@H]1CCOC1 [Afatinib] | 151 ± 15 | 77.1 ± 36 | 93.9 ± 5.5 | 15.6 ± 3.4 | 103 ± 7.7 | 72.2 ± 40 | 68.8 ± 6.8 | 13 ± 0.97 | 94.6 ± 18 | 101 ± 22 | 75.7 ± 7.1 | 21.2 ± 1.6 | 85.2 ± 6.7 | 34.5 ± 13 | 18.7 ± 0.37 | 10.8 ± 1.1 | 117 ± 13 | 66.9 ± 10 | 82.8 ± 8.8 | 20.2 ± 4.5 |  |  |  |  | 
12 | COc1cc(Nc2ncc3c(n2)-c2ccc(Cl)cc2C(c2c(F)cccc2OC)=NC3)ccc1C(=O)O [Alisertib] | 112 ± 7.3 | 50.3 ± 15 | 59.5 ± 1.8 | 49.3 ± 8.4 | 82.4 ± 36 | 39.4 ± 3.1 | 42 ± 10 | 35.2 ± 1.5 | 99.89 ± 0.26 | 53.9 ± 1 | 57.4 ± 9.7 | 48.4 ± 1.9 | 121 ± 14 | 80.8 ± 8.3 | 77.2 ± 11 | 91.2 ± 9.5 | 92.5 ± 23 | 66.5 ± 8 | 77.8 ± 24 | 68.3 ± 5.7 |  |  |  |  | 
